Inhibition data for 32 compounds are collected here from US20110082130A1 (LIGAND PHARMACEUTICALS, INC., priority 2006, published 2011).

Each structure is given as a SMILES string.

A word on the inhibition: it is the change of the read-out against control, counted positive when it falls.

T1 sequence (Q9Y5N1 with tags, fused parts or gaps): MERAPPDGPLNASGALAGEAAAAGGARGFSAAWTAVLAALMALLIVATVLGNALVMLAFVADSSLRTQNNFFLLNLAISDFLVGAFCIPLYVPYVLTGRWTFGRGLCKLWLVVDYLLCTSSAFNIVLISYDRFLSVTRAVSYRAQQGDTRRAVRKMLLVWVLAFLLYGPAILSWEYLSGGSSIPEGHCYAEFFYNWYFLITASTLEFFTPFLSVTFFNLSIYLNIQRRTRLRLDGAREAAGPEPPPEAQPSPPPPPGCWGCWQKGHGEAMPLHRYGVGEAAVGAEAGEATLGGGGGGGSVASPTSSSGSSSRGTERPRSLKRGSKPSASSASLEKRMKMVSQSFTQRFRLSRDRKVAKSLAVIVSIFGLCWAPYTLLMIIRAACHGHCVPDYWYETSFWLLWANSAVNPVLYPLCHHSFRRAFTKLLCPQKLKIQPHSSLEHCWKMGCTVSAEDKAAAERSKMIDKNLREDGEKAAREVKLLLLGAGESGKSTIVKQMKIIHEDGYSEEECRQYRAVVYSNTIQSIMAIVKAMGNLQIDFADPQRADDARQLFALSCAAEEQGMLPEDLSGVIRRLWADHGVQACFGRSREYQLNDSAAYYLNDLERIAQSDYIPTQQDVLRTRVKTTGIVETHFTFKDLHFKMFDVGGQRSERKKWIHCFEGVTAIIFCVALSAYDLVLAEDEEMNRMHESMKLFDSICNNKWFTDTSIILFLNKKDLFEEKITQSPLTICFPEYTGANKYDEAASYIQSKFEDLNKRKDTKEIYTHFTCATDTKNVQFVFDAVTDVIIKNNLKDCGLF

The first assay concerns the target T1, chimeric human H3 receptor (Homo sapiens, UniProt Q9Y5N1).
T1 construct: made in house; host or cells: Sf9 insect cells (baculovirus); P2 membrane preparation
Briefly: Chimeric human H3 receptor screening GTP binding assay (inhibition of histamine-stimulated GTP-gamma35S binding, Example 8). It is filed as biochemical. Conditions: 4 μM of the compound, 1 μM histamine, "†" in Ki of Table II, read-out: percent inhibition of the signal obtained with 1 μM histamine. The method, boiled down:
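Values are percent inhibition of 1 μM histamine-stimulated GTP-gamma35S […] binding, with non-specific binding (10 μM GTP-gammaS) subtracted, by compounds tested at 4 μM. Membranes (35 μg) from Sf9 cells expressing chimeric human H3 with G-protein subunits were used in Tris pH 7.4 buffer with 10 μM GDP. Incubation lasted 60 min at room temperature, followed by filtration and scintillation counting.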
In general terms: Binding of GTPγS marks nucleotide exchange on a G protein.
With `O=C(CN1CCc2cc(-c3ccc(F)cc3)ccc2C1)N1CCN(C2CCCC2)CC1` [Compound 408, 2-[2-(4-cyclopentylpiperazin-1-yl)-2-oxoethyl]-6-(4-fluorophenyl)-1,2,3,4-tetrahydroisoquinoline], the inhibition at 4 µM was at least 90%.
Still for that read-out and setting: to `O=C(CN1CCc2cc(-c3ccccc3)ccc2C1)N1CCN(C2CCCCC2)CC1` [Compound 400, 2-[2-(4-cyclohexylpiperazin-1-yl)-2-oxoethyl]-6-phenyl-1,2,3,4-tetrahydroisoquinoline] belongs at least 90%; to `CC(C)N1CCN(C(=O)CN2CCc3cc(-c4ccc5ccccc5c4)ccc3C2)CC1` [Compound 419, 2-[2-(4-isopropylpiperazin-1-yl)-2-oxoethyl]-6-(2-naphthyl)-1,2,3,4-tetrahydroisoquinoline], at least 90%; to `CCCc1ccc(-c2ccc3c(c2)CCN(CC(=O)N2CCN(C4CCCCC4)CC2)C3)cc1` [Compound 465, 2-[2-(4-cyclohexylpiperazin-1-yl)-2-oxoethyl]-6-(4-propylphenyl)-1,2,3,4-tetrahydroisoquinoline], at least 90%.
Same read-out and setting: to `Cc1ccc(-c2ccc3c(c2)CCN(CC(=O)N2CCN(C4CCCCC4)CC2)C3)cc1C` [Compound 449, 2-[2-(4-cyclohexylpiperazin-1-yl)-2-oxoethyl]-6-(3,4-dimethylphenyl)-1,2,3,4-tetrahydroisoquinoline] belongs at least 90%; to `Cc1ccc(-c2ccc3c(c2)CCN(CC(=O)N2CCN(C4CCCCC4)CC2)C3)c(F)c1` [Compound 422, 2-[2-(4-cyclohexylpiperazin-1-yl)-2-oxoethyl]-6-(2-fluoro-4-methylphenyl)-1,2,3,4-tetrahydroisoquinoline], at least 90%; to `Cc1ccc(-c2ccc3c(c2)CCN(CC(=O)N2CCN(C4CCC4)CC2)C3)cc1C` [Compound 447, 2-[2-(4-cyclobutylpiperazin-1-yl)-2-oxoethyl]-6-(3,4-dimethylphenyl)-1,2,3,4-tetrahydroisoquinoline], at least 90%.
The same measure, in the same setting: under `COc1ccc(C(C)C)cc1-c1nc2c(s1)CN(CC(=O)N1CCN(C3CCC3)CC1)CC2` [Compound 337, 5-[2-(4-cyclobutylpiperazin-1-yl)-2-oxoethyl]-2-(5-isopropyl-2-methoxyphenyl)-4,5,6,7-tetrahydro[1,3]thiazolo [5,4-c]pyridine] stands at least 90%; under `COc1ccc(F)cc1-c1nc2c(s1)CN(CC(=O)N1CCN(C3CCC3)CC1)CC2` [Compound 343, 5-[2-(4-cyclobutylpiperazin-1-yl)-2-oxoethyl]-2-(5-fluoro-2-methoxyphenyl)-4,5,6,7-tetrahydro[1,3]thiazolo [5,4-c]pyridine], at least 90%; under `Cc1ccc(F)c(-c2ccc3c(c2)CCN(CC(=O)N2CCN(C4CCCCC4)CC2)C3)c1` [Compound 425, 2-[2-(4-cyclohexylpiperazin-1-yl)-2-oxoethyl]-6-(2-fluoro-5-methylphenyl)-1,2,3,4-tetrahydroisoquinoline], at least 90%.
Turning to `CCCCc1ccc(-c2ccc3c(c2)CCN(CC(=O)N2CCN(C4CCC4)CC2)C3)cc1` [Compound 451, 6-(4-butylphenyl)-2-[2-(4-cyclobutylpiperazin-1-yl)-2-oxoethyl]-1,2,3,4-tetrahydroisoquinoline], the inhibition at 4 µM is at least 90%.
The same measure, in the same setting: to `O=C(CN1CCc2cc(-c3ccccc3)ccc2C1)N1CCN(C2CCCC2)CC1` [Compound 399, 2-[2-(4-cyclopentylpiperazin-1-yl)-2-oxoethyl]-6-phenyl-1,2,3,4-tetrahydroisoquinoline] belongs at least 90%; to `CCc1ccc(-c2ccc3c(c2)CCN(CC(=O)N2CCN(C4CCCC4)CC2)C3)cc1` [Compound 460, 2-[2-(4-cyclopentylpiperazin-1-yl)-2-oxoethyl]-6-(4-ethylphenyl)-1,2,3,4-tetrahydroisoquinoline], at least 90%.
The same measure, in the same setting: to `O=C(CN1CCc2cc(-c3cccc4c3oc3ccccc34)ccc2C1)N1CCN(C2CCC2)CC1` [Compound 388, 2-[2-(4-cyclobutylpiperazin-1-yl)-2-oxoethyl]-6-dibenzo[b,d]furan-4-yl-1,2,3,4-tetrahydroisoquinoline] belongs at least 90%.
The same measure, in the same setting: under `O=C(CN1CCc2cc(-c3cccc(Cl)c3)ccc2C1)N1CCN(C2CCCC2)CC1` [Compound 402, 6-(3-chlorophenyl)-2-[2-(4-cyclopentylpiperazin-1-yl)-2-oxoethyl]-1,2,3,4-tetrahydroisoquinoline] stands at least 90%; under `CCc1cccc(-c2ccc3c(c2)CCN(CC(=O)N2CCN(C4CCC4)CC2)C3)c1` [Compound 467, 2-[2-(4-cyclobutylpiperazin-1-yl)-2-oxoethyl]-6-(3-ethylphenyl)-1,2,3,4-tetrahydroisoquinoline], at least 90%.

The assay is the same for the next values; noted with them: Table II "Ki", symbol †, 4 μM of the compound, 1 μM histamine, read-out: percent inhibition of the signal obtained with 1 μM histamine.
On to `CCOc1ccccc1-c1ccc2c(c1)CCN(CC(=O)N1CCN(C3CCCCC3)CC1)C2` [Compound 568, 2-[2-(4-cyclohexylpiperazin-1-yl)-2-oxoethyl]-6-(2-ethoxyphenyl)-1,2,3,4-tetrahydroisoquinoline], for which the inhibition at 4 µM is at least 90%.
For the compound `COc1ccc(-c2ccc3c(c2)CCN(CC(=O)N2CCN(C4CCCCC4)CC2)C3)cc1C` [Compound 542, 2-[2-(4-cyclohexylpiperazin-1-yl)-2-oxoethyl]-6-(4-methoxy-3-methylphenyl)-1,2,3,4-tetrahydroisoquinoline], the inhibition at 4 µM is at least 90%.
Turning to `O=C(CN1CCc2cc(-c3cc(F)cc(F)c3)ccc2C1)N1CCN(C2CCCC2)CC1` [Compound 597, 2-[2-(4-cyclopentylpiperazin-1-yl)-2-oxoethyl]-6-(3,5-difluorophenyl)-1,2,3,4-tetrahydroisoquinoline], the inhibition at 4 µM was at least 90%.
Same read-out and setting: under `COc1ccc(-c2ccc3c(c2)CCN(CC(=O)N2CCN(C(C)C)CC2)C3)cc1F` [Compound 505, 6-(3-fluoro-4-methoxyphenyl)-2-[2-(4-isopropylpiperazin-1-yl)-2-oxoethyl]-1,2,3,4-tetrahydroisoquinoline] stands at least 90%.
In the case of `COc1ccc(-c2ccc(-c3ccc4c(c3)CCN(CC(=O)N3CCN(C5CCCCC5)CC3)C4)cc2)cc1` [Compound 500, 2-[2-(4-cyclohexylpiperazin-1-yl)-2-oxoethyl]-6-(4′-methoxybiphenyl-4-yl)-1,2,3,4-tetrahydroisoquinoline], the inhibition at 4 µM is at least 90%.
Still for that read-out and setting: to `O=C(CN1CCc2cc(-c3cc(F)ccc3F)ccc2C1)N1CCN(C2CCCCC2)CC1` [Compound 584, 2-[2-(4-cyclohexylpiperazin-1-yl)-2-oxoethyl]-6-(2,5-difluorophenyl)-1,2,3,4-tetrahydroisoquinoline] belongs at least 90%.
The same measure, in the same setting: under `C[C@H]1CN(C(=O)CN2CCc3cc(-c4cncnc4)ccc3C2)CCN1C1CCOCC1` [Compound 622, 2-{2-[(3S)-3-methyl-4-(tetrahydro-2H-pyran-4-yl)piperazin-1-yl]-2-oxoethyl}-6-pyrimidin-5-yl-1,2,3,4-tetrahydroisoquinoline] stands at least 90%; under `COc1ccc(-c2ccc3c(c2)CCN(CC(=O)N2CCN(C4CCCC4)CC2)C3)c(C)c1` [Compound 549, 2-[2-(4-cyclopentylpiperazin-1-yl)-2-oxoethyl]-6-(4-methoxy-2-methylphenyl)-1,2,3,4-tetrahydroisoquinoline], at least 90%; under `COc1ccc(-c2ccc(-c3ccc4c(c3)CCN(CC(=O)N3CCN(C(C)C)CC3)C4)cc2)cc1` [Compound 501, 2-[2-(4-isopropylpiperazin-1-yl)-2-oxoethyl]-6-(4′-methoxybiphenyl-4-yl)-1,2,3,4-tetrahydroisoquinoline], at least 90%.
For the compound `CN(C)c1cccc(-c2ccc3c(c2)CCN(CC(=O)N2CCN(C4CCCC4)CC2)C3)c1` [Compound 537, 3-{2-[2-(4-cyclopentylpiperazin-1-yl)-2-oxoethyl]-1,2,3,4-tetrahydroisoquinolin-6-yl}-N,N-dimethylaniline], the inhibition at 4 µM was at least 90%.
On the same count and under the same terms, to `COc1ccc(Cl)cc1-c1ccc2c(c1)CCN(CC(=O)N1CCN(C3CCC3)CC1)C2` [Compound 557, 6-(5-chloro-2-methoxyphenyl)-2-[2-(4-cyclobutylpiperazin-1-yl)-2-oxoethyl]-1,2,3,4-tetrahydroisoquinoline] belongs at least 90%; to `O=C(CN1CCc2cc(-c3ccc(F)c(Cl)c3)ccc2C1)N1CCN(C2CCCC2)CC1` [Compound 580, 6-(3-chloro-4-fluorophenyl)-2-[2-(4-cyclopentylpiperazin-1-yl)-2-oxoethyl]-1,2,3,4-tetrahydroisoquinoline], at least 90%.
Same read-out and setting: to `COc1ccc(-c2ccc3c(c2)CCN(CC(=O)N2CCN(C4CCC4)CC2)C3)c(OC)c1` [Compound 563, 2-[2-(4-cyclobutylpiperazin-1-yl)-2-oxoethyl]-6-(2,4-dimethoxyphenyl)-1,2,3,4-tetrahydroisoquinoline] belongs at least 90%; to `O=C(CN1CCc2cc(-c3ccc(Oc4ccccc4)cc3)ccc2C1)N1CCN(C2CCCC2)CC1` [Compound 487, 2-[2-(4-cyclopentylpiperazin-1-yl)-2-oxoethyl]-6-(4-phenoxyphenyl)-1,2,3,4-tetrahydroisoquinoline], at least 90%; to `COc1ccc(OC)c(-c2ccc3c(c2)CCN(CC(=O)N2CCN(C4CCCC4)CC2)C3)c1` [Compound 560, 2-[2-(4-cyclopentylpiperazin-1-yl)-2-oxoethyl]-6-(2,5-dimethoxyphenyl)-1,2,3,4-tetrahydroisoquinoline], at least 90%.
Regarding `COc1ccc(OC)c(-c2ccc3c(c2)CCN(CC(=O)N2CCN(C4CCC4)CC2)C3)c1` [Compound 559, 2-[2-(4-cyclobutylpiperazin-1-yl)-2-oxoethyl]-6-(2,5-dimethoxyphenyl)-1,2,3,4-tetrahydroisoquinoline], the inhibition at 4 µM is at least 90%.
